Measurements published in PMC5365662, “A Short Double-Stapled Peptide Inhibits Respiratory Syncytial Virus Entry and Spreading” (Antimicrobial Agents and Chemotherapy, 2017).
Bridge positions count the residues as written; N and C are the ends. Square brackets hold non-standard residues; d marks the D form. Peptide text beside a SMILES is read from it. R5 = C=CCCC[C@@](C)(N)C(=O)O; S5 = C=CCCC[C@](C)(N)C(=O)O

Columns and labels:
[1] = Histological analysis of lungs; assay type: in vivo, BALB/c mice
Protocol: In order to track the infection, we used the recombinant virus rHRSV-Luc, which was previously shown to allow in vivo imaging studies of RSV replication and spreading and constitutes a powerful and convenient tool for the evaluation of drug efficiency against RSV in the mouse model ([24]). […] Mice were anesthetized at day 3 p.i. and observed alive using the IVIS imaging system 5 min after i.n. injection of D-luciferin. […] At day 3 p.i., a second dose of the peptide was administered to the mice, and the bioluminescence was measured at day 5 p.i. […] At day 7 p.i., a time corresponding to the end of the infection in mice, the animals were sacrificed and the lungs were collected in order to perform a histological analysis. […]
Mice were sacrificed at day 7 p.i., the chest cavity was opened, and the lungs were perfused intratracheally with 4% paraformaldehyde (PFA) in PBS. […] The lungs were embedded in paraffin, and 5-μm sections were cut, stained with hematoxylin-eosin-saffron (HES), and evaluated microscopically. Qualitative histological changes were described and when applicable were scored semiquantitatively using a three-point scale from 0 to 2 (0, none; 1, mild; 2, marked), focusing on histological characterization of lesions (interstitial pneumonia, respiratory epithelial cell apoptosis, and hyperplasia) and inflammation.

[2] = Proteolytic stability assay, chymotrypsin; assay type: in vitro ADME; conditions: chymotrypsin (isolated protease); 10 μl peptide 0.29 mM in 990 μl 100 mM Tris-HCl pH 8.0, 10 mM CaCl2; 10 μl chymotrypsin 50 μg/ml; 25°C; LC-MS of intact peptide, exponential decay fit; 3 experiments
Protocol: This is an important parameter to assess for the development of peptide therapeutics. Peptides 4bb, 4ca, and 4a, and the unstapled analog peptide 4, as well as both SAH-RSVFBD isomers, were treated with chymotrypsin or trypsin, and the samples were analyzed by LC/MS to quantify the reaction products over time. […] In comparison, both SAH-RSVFBD isomers were more susceptible to proteolytic degradation, with half-lives of approximately 7 h and 5 min against chymotrypsin and trypsin, respectively.
In vitro proteolytic degradation was measured via LC-MS using an Agilent Infinity 1280 UHPLC system coupled to an Agilent quadrupole time of flight (QTOF) 6530 instrument with an Agilent Jet Stream electrospray ionization (AJS ESI) source (all from Agilent Technologies, Waldbronn, Germany). Five microliters of digested sample was injected onto a C18 column (Zorbax Eclipse Plus RRHD, 1.8 μm, 2.1 by 100 mm; Agilent Technologies, Waldbronn, Germany) equilibrated with solvent A (5% acetonitrile, 0.2% formic acid) and eluted with a flow rate of 0.4 ml/min over a 5 to 95% gradient of solvent B (95% acetonitrile, 0.2% formic acid) in 5 min, followed by 1.5 min at 95% and 0.5 min posttime. The AJS ESI source was operated with a capillary voltage of 4,000 V and a nozzle voltage of 600 V with a drying gas temperature of 325°C and flow rate of 10 liters/min, nebulizing gas pressure of 20 lb/in^2, and a sheath gas temperature of 300°C and flow rate of 11 liters/min. Mass spectra were acquired in the positive-ion mode from 100 to 3,200 m/z at a rate of 1 scan per second in extended dynamic range (2 GHz) mode. The fragmentor, skimmer, and octopole RF voltages were set to 200, 60, and 750 V, respectively. Data were acquired and analyzed with the Agilent MassHunter Workstation (version B.05).
Peptide digestion was performed as follows: 10 μl of peptide at 0.29 mM in 50:50 acetonitrile-water was dissolved in 990 μl 100 mM Tris-HCl (pH 8.0) with 10 mM CaCl2. Following measurement of the undigested (t0) sample, 10 μl of chymotrypsin at 50 μg/ml in 100 mM Tris-HCl (pH 8.0) with 10 mM CaCl2 was added, and the sample was vortexed and placed immediately in the autosampler, set to 25°C. The level of intact peptide was quantified by serial injection over time. Integration of the intact peptide compound chromatogram was performed using the Agilent Molecular Feature Extraction (MFE) algorithm. The value of the fit at t = 0 min was used to calculate the percentage of the intact peptide at each point as follows: Percent intact (t) = [Vol (t)/Volt0] × 100, where Vol is the total volume calculated using Find Compounds by Molecular Feature and Volt0 is the value of the fit at time t = 0. A plot of the intact peptide MFE peak area over time gave an exponential decay curve, from which the half-life was determined using MatLab […].

Structure (SMILES): CC[C@H](C)[C@@H]1NC(=O)[C@H](Cc2ccccc2)NC(=O)[C@@](C)(NC(=O)[C@H](CC(C)C)NC(=O)[C@H](CO)NC(=O)[C@]2(C)CCCC=CCCC[C@@](C)(NC(=O)[C@H](CCC(=O)O)NC(C)=O)C(=O)N[C@@H]([C@@H](C)CC)C(=O)N[C@@H](CC(N)=O)C(=O)N2)CCCC=CCCC[C@@](C)(C(=O)N[C@@H](CO)C(=O)N[C@@H](CC(=O)O)C(=O)N[C@@H](CCC(=O)O)C(=O)N[C@@H](CC(C)C)C(=O)N[C@@H](CC(C)C)C(=O)N[C@@H](Cc2c[nH]cn2)C(=O)N[C@@H](CC(N)=O)C(=O)N[C@H](C(N)=O)C(C)C)NC(=O)[C@H](CCCNC(=N)N)NC1=O [Peptide 4ca] (Ac-E[R5]IN[S5]SL[S5]FIR[S5]SDELLHNV-NH2; staple 2-5, 8-12)
- histological changes in lung parenchyma (toxicity) ([1]; 4ca-inoculated versus mock-inoculated noninfected mice, i.n. 50 μl at 50 μM, day 7, HES staining): no histological changes
- interstitial pneumonia after RSV infection ([1]; RSV-infected mice treated i.n. with 4ca, day 7 p.i., HES staining): no interstitial pneumonia was observed
- half-life at 2.9 µM [2]: 180 h
